Experimental data published in the NIST ThermoML archive (doi:10.1021/je060271a).

Details: 283.15 K, Liquid, Vibrating tube method

CCCCCCCC(=O)OCC(COC(=O)CCCCCCC)(COC(=O)CCCCCCC)COC(=O)CCCCCCC [pentaerythritol tetraoctanoate]
Details | mass density [kg/m3]
7440.8 kPa | 974.4
7459 kPa | 974.5
7477.1 kPa | 974.5
7498.5 kPa | 974.5
7516.3 kPa | 974.6
7534.1 kPa | 974.5
7555.6 kPa | 974.6
7574.3 kPa | 974.6
7592.6 kPa | 974.6
7614.9 kPa | 974.6
7633.7 kPa | 974.6
7652.5 kPa | 974.6
7671.5 kPa | 974.7
7693.9 kPa | 974.6
7713.6 kPa | 974.7
7732.4 kPa | 974.7
7751.9 kPa | 974.7
7774.9 kPa | 974.8
7794.2 kPa | 974.7
7813.7 kPa | 974.8
7837.5 kPa | 974.7
7857 kPa | 974.8
7877.2 kPa | 974.8
7897.6 kPa | 974.8
7917.4 kPa | 974.8
7942.4 kPa | 974.8
7963.7 kPa | 974.8
7984.1 kPa | 974.8
8005.2 kPa | 974.9
8025.4 kPa | 974.9
8049.7 kPa | 974.8
8070.2 kPa | 974.9
8092.5 kPa | 975.1
8117.1 kPa | 974.9
8138 kPa | 974.8
8159.8 kPa | 974.9
8184.3 kPa | 974.9
8205.1 kPa | 975
8227.9 kPa | 974.9
8252.3 kPa | 975
8274.2 kPa | 975
8300.2 kPa | 975.1
8322.1 kPa | 975.1
8344.2 kPa | 975.1
8367 kPa | 975.1
8393.5 kPa | 975
8415.8 kPa | 975.1
8438.6 kPa | 975
8465.5 kPa | 975.1
8487.9 kPa | 975.1
8516.4 kPa | 975.2
8539.8 kPa | 975.1
8563.6 kPa | 975.1
8586.9 kPa | 975.2
8615 kPa | 975.2
8638.6 kPa | 975.2
8666.6 kPa | 975.3
8690.7 kPa | 975.3
8714.3 kPa | 975.1
8744.3 kPa | 975.2
8768.6 kPa | 975.3
8793.6 kPa | 975.4
8822.8 kPa | 975.4
8847.1 kPa | 975.3
8872.8 kPa | 975.3
8898.8 kPa | 975.4
8929.2 kPa | 975.3
8953.6 kPa | 975.4
8985 kPa | 975.4
9011.4 kPa | 975.4
9037.2 kPa | 975.4
9063.1 kPa | 975.5
9095 kPa | 975.3
9120.9 kPa | 975.4
9152 kPa | 975.5
9179.6 kPa | 975.5
9206.9 kPa | 975.5
9238.7 kPa | 975.5
9266.5 kPa | 975.5
9295.1 kPa | 975.6
9323 kPa | 975.5
9356.5 kPa | 975.6
9383.9 kPa | 975.2
9416.6 kPa | 975.6
9445.6 kPa | 975.6
9474.8 kPa | 975.6
9509.1 kPa | 975.6
9537.9 kPa | 975.7
9567.4 kPa | 975.8
9602.7 kPa | 975.7
9633 kPa | 975.8
9662.7 kPa | 975.7
9692.8 kPa | 975.8
9730.2 kPa | 975.8
9760.9 kPa | 975.8
9797 kPa | 975.9
9827.4 kPa | 975.9
9859.1 kPa | 975.8
9890.1 kPa | 975.9
9927.8 kPa | 975.9
9959.5 kPa | 976
9991.2 kPa | 976
10030 kPa | 975.8
10063 kPa | 975.9
10103 kPa | 976
10135 kPa | 975.9
10169 kPa | 976
10203 kPa | 976.1
10243 kPa | 976.1
10276 kPa | 976
10311 kPa | 976.1
10352 kPa | 976
10387 kPa | 976.1
10421 kPa | 976.1
10464 kPa | 976.2
10500 kPa | 976.2
10539 kPa | 976.3
10575 kPa | 976.4
10612 kPa | 976.3
10655 kPa | 976.1
10692 kPa | 976.4
10736 kPa | 976.3
10773 kPa | 976.4
10813 kPa | 976.3
10851 kPa | 976.4
10890 kPa | 976.5
10936 kPa | 976.5
10974 kPa | 976.5
11022 kPa | 976.5
11063 kPa | 976.4
11103 kPa | 976.5
11143 kPa | 976.6
11183 kPa | 976.6
11232 kPa | 976.8
11272 kPa | 976.6
11322 kPa | 976.6
11363 kPa | 976.6
11404 kPa | 976.6
11456 kPa | 976.9
11499 kPa | 976.7
11542 kPa | 976.8
11594 kPa | 976.8
11639 kPa | 976.8
11683 kPa | 976.8
11736 kPa | 976.9
11780 kPa | 976.8
11826 kPa | 977
11881 kPa | 976.9
11928 kPa | 976.9
11974 kPa | 977.1
12022 kPa | 977
12078 kPa | 977
12126 kPa | 977.1
12174 kPa | 977.1
12234 kPa | 977.1
12283 kPa | 977.2
12334 kPa | 977.2
12394 kPa | 977.1
12445 kPa | 977.3
12496 kPa | 977.2
12548 kPa | 977.3
12611 kPa | 977.3
12662 kPa | 977.3
12708 kPa | 977.5
12785 kPa | 977.5
12834 kPa | 977.5
12903 kPa | 977.4
12955 kPa | 977.6
12988 kPa | 977.5
13021 kPa | 977.6
13054 kPa | 977.6
13095 kPa | 977.6
13128 kPa | 977.6
13170 kPa | 977.5
13204 kPa | 977.8
13238 kPa | 977.7
13272 kPa | 977.7
13314 kPa | 977.8
13350 kPa | 977.7
13385 kPa | 977.8
13427 kPa | 977.8
13463 kPa | 977.8
13506 kPa | 977.9
13542 kPa | 977.9
13579 kPa | 977.9
13615 kPa | 978
13660 kPa | 977.9
13697 kPa | 977.8
13734 kPa | 977.9
13779 kPa | 978
13816 kPa | 978.1
13863 kPa | 978
13902 kPa | 978
13942 kPa | 978.1
13982 kPa | 978.1
14031 kPa | 978.1
14074 kPa | 978.2
14118 kPa | 978.2
14166 kPa | 978.1
14190 kPa | 978.3
14210 kPa | 978.2
14230 kPa | 978.3
14254 kPa | 978.2
14274 kPa | 978.3
14298 kPa | 978.3
14319 kPa | 978.3
14340 kPa | 978.4
14360 kPa | 978.3
14384 kPa | 978.3
14405 kPa | 978.4
14426 kPa | 978.4
14446 kPa | 978.4
14472 kPa | 978.2
14492 kPa | 978.3
14514 kPa | 978.3
14539 kPa | 978.5
14560 kPa | 978.4
14582 kPa | 978.4
14608 kPa | 978.5
14625 kPa | 978.5
14650 kPa | 978.4
14671 kPa | 978.4
14693 kPa | 978.6
14718 kPa | 978.4
14740 kPa | 978.5
14765 kPa | 978.6
14787 kPa | 978.6
14809 kPa | 978.6
14835 kPa | 978.4
14857 kPa | 978.6
14879 kPa | 978.7
14906 kPa | 978.6
14928 kPa | 978.7
14950 kPa | 978.5
14976 kPa | 978.6
14999 kPa | 978.6
15022 kPa | 978.7
15044 kPa | 978.7
15071 kPa | 978.7
15093 kPa | 978.7
15116 kPa | 978.5
15143 kPa | 978.8
15166 kPa | 978.7
15189 kPa | 978.8
15217 kPa | 978.7
15240 kPa | 978.8
15263 kPa | 978.6
15291 kPa | 978.9
15314 kPa | 978.8
15338 kPa | 978.9
15366 kPa | 978.7
15389 kPa | 978.8
15417 kPa | 978.9
15441 kPa | 978.9
15465 kPa | 978.9
15488 kPa | 978.9
15517 kPa | 979
15542 kPa | 978.9
15566 kPa | 978.9
15595 kPa | 978.9
15620 kPa | 978.9
15644 kPa | 979
15673 kPa | 979
15698 kPa | 979
15722 kPa | 979
15752 kPa | 979.1
15776 kPa | 979.1
15801 kPa | 979.2
15831 kPa | 979
15856 kPa | 979.1
15882 kPa | 979.1
15912 kPa | 979.2
15938 kPa | 979.2
15963 kPa | 979.1
15994 kPa | 979.2
16019 kPa | 979.2
16045 kPa | 979.1
16076 kPa | 979.2
16102 kPa | 979.2
16128 kPa | 979.4
16159 kPa | 979.2
16185 kPa | 979.2
16212 kPa | 979.2
16238 kPa | 979.4
16270 kPa | 979.3
16296 kPa | 979.4
16328 kPa | 979.4
16355 kPa | 979.5
16382 kPa | 979.5
16409 kPa | 979.4
16441 kPa | 979.5
16468 kPa | 979.5
16501 kPa | 979.4
16528 kPa | 979.5
16556 kPa | 979.4
16591 kPa | 979.4
